Reference: patent publication US20090056397A1, “NITROGEN CONTAINING FERTILIZER FOR PLANT GROWTH” (SweTree Technologies AB, priority 2000, published 2009)
Like-named read-outs stand apart in the source and are kept apart here.

How the values were obtained:
[1] = for Retention % (adsorption or retention of the chemicals in the peat): 0.2 millimole chemical per gram peat, 5 millimolar solution, one hour at room temperature, mean of three tests, HPLC of liquid phase; for amount of supplied chemical found in the liquid (water) phase: same test as the retention, liquid phase above the peat
Description: A given amount of peat of the same kind as that used in the cultivation trials and whose properties have been given above was dried in an oven at a temperature of 60° C. for 20 hours. […] Portions of this peat corresponding to 0.25 grams were inserted into nine test tubes. 5 ml water was delivered to each test tube, this water having been purified in filters from the company Millipore. The test tubes and their contents were then allowed to stand at room temperature for 20 hours, so that the peat would become wet through.
The aforesaid three chemicals, each in solid state, were weighed into three equal portions. Each portion was dissolved in 5 ml water that had been purified in the before described manner. The amount or weight of the substance was such as to obtain a substance concentration of 5 millimolar.
Each of the nine chemical solutions was delivered to a respective test tube that contained water-drenched peat. The amount of chemical added was 0.2 millimole per gram peat in all cases. Subsequent to supplying said liquid, each test tube was shaken by hand and thereafter allowed to stand at room temperature for one hour. The materials in the test tubes layered, such that the lowermost third contained a substantially clear liquid phase and the remainder of the tube contained liquid-drenched peat. A pipette was inserted into the test tube down to approximately midway of the liquid phase. About 1.5 millilitres of liquid was drawn off through the pipette and analysed with respect to its chemical content with the aid of HPLC-chromatography (HPLC=High Performance Liquid Chromatography).
As evident from the foregoing, three similar tests were carried out for each chemical.

[2] = system: spruce plants; assay: Cultivation trials with spruce plants in peat using various nitrogen sources; format: in vivo; settings: 59 days
Description: 720 spruce seeds were sown in peat at the same time as and in parallel with the above described trials. The trials carried out on spruce seeds and on spruce plants stemming from the seed were identical to the earlier described trials. […] The standard deviation is also shown in this case.

[3] = system: pine plants; assay: Cultivation trials with pine plants in peat using various nitrogen sources; format: in vivo; settings: 59 days; for change in growth of the pine plants on charge increase from three to ten millimoles per litre: nitrogen 3 mM to 10 mM; for growth of the pine plants (mean dry weight), ranking of the nitrogen sources: greenhouse 20° C., nitrogen 1, 3 and 10 mM, FIG. 1
Description: The cultivation trials presented below were carried out over a time period of 59 days in a greenhouse that was kept at a constant temperature of 20° C. Lighting was kept at 150 micromole light per square meter (m^2) and second (s). The lamps used to this end were Philips Powertone SON-T+400 Watt. 720 pine seeds were sown in pots that contained 0.5 litre unfertilized (but weakly […] five seeds per pot. The pots were plastic pots that included typically four small holes in the bottom of the pot. […] Fertilizer was administered on Monday and Tuesday of each week and the seeds, and later the seedlings or shoots, were watered each Sunday. The nutrient mixture and the water were both brought a pH of 5.0 with hydrochloric acid. Both the nutrient mixture and the water were administered manually to each pot with the aid of so-called bird pipette having a capacity of one decilitre. […] Eight different nutrient mixtures were tested and the nitrogen for each nutrient mixture was charged in three different concentrations, namely concentrations of one millimole per litre (1 mM), three millimole per litre (3 mM) and ten millimole per litre (10 mM). Six pots, and therewith thirty plants, were used for each nutrient mixture and each concentration, giving a total of 144 pots. […] Further dilution was required to obtain respective concentrations of three millimole and one millimole. The remaining seven nutrient mixtures were obtained, by preparing a stock solution that coincides totally with the before described commercial product but with the exception that the nitrogen source in the form of 61.5% nitrogen in nitrate form and 38.5% nitrogen in ammonium form was excluded. […] Each nutrient mixture based on the latter two nitrogen sources were prepared and have been given the designation +(plus) in the following. The addition is that the stock solution has been charged with twice the conventional amount of both potassium and magnesium. As those skilled in this art will realise, this has been done because a significant increase in the amount of ammonium nitrogen at the cost of the amount of nitrate nitrogen may result in a potassium and magnesium deficiency from the nutrient aspect. It will be noted that with regard to the inventive fertilizer, i.e. the basic protein amino acid arginine that contains four nitrogen atoms, the concentration has been calculated on the basis of one nitrogen atom, which means that the actual addition of the acid calculated in grams per litre is comparatively low or very low. At the end of the cultivation trials, the thirty pine plans in each trial series were taken up and their dry weight determined in grams. […] The sign I stand for the standard error defined as the standard deviation (which is a well defined term to describe the spread between tests) divided by the square root of the number of samples, in this case thirty samples.

SMILES | Retention % (adsorption or retention of the chemicals in the peat) [1] | Retention % (adsorption or retention of the chemicals in the peat) ([1]; listed as ammonium) | amount of supplied chemical found in the liquid (water) phase [1] | state of the spruce plants at the end of the trial (toxicity limit) ([2]; nitrogen charge of ten millimoles per litre) | change in growth of the pine plants on charge increase from three to ten millimoles per litre [3] | growth of the pine plants at a charge of three millimoles per litre ([3]; nitrogen 3 mM) | Retention % (adsorption or retention of the chemicals in the peat) ([1]; listed as arginine) | growth of the spruce plants with increased nitrogen charges ([2]; nitrogen 1 to 3 to 10 mM) | growth of the pine plants (mean dry weight), ranking of the nitrogen sources [3] | growth of the pine plants with increase in the nitrogen addition ([3]; nitrogen 1 to 3 to 10 mM) | Retention % (adsorption or retention of the chemicals in the peat) ([1]; listed as glycine)
Cl.N [Ammonium (NH4^+), ammonium chloride] | 28.0% | 28% | more than 70% | dead at the end of the trial | catastrophic reduction in growth | sufficiently good growth | – | – | – | – | –
N=C(N)NCCC[C@H](N)C(=O)O [Arginine, arginine] | 89.1% | – | ~11% | – | – | – | ~90% | constantly increased growth | best growth | increased constantly with an increase in the nitrogen addition | –
NCC(=O)O [Glycine, glycine] | −1.9% | – | – | – | slight decrease in growth or at least not an increased growth | – | – | – | these three preparations are followed by the nutrient mixture that includes glycine | – | less than zero
